From patent US12508431B2, “Method and apparatus for electrical current therapy of biological tissue and insulin release therefrom” (ROCKY MOUNTAIN BIPHASIC, INC., priority 2019, dated 2025)

Experiments:
INS-1 cells [1] = experiment: Transmembrane potential assay by DiBAC4(3) staining; assay type: cell-based, rat; conditions: 30 min in staining buffer with 5 μM DiBAC4(3), valinomycin 100 nM, gramicidin 100 nM, KCl 140 mM, FIG. 8A
Description: The transmembrane potential (TMP) was estimated using DiBAC4(3) staining as previously described. For these studies, INS-1 cells were grown to 95% confluency in 6-well plates. The medium was aspirated, replaced with 3 mL fresh complete medium per well, and subjected to mock stimulation or ACBPS (10 Hz, (2.5 ms)/(2.5 ms) pulse duration, 25 V magnitude) for 30 min. Immediately following the stimulation period, the medium was aspirated from each well and replaced with 2 mL per well staining buffer (20 mM HEPES, 120 mM NaCl, 2 mM KCl, 2 mM CaCl2), 1 mM MgCl2, and 5 mM glucose [pH 7.4]) containing 5 μM DiBAC4(3) with DMSO (mock and ACBPS), valinomycin (100 nM), gramicidin (100 nM) or KCl (140 mM). The cells were allowed to incubate in staining buffer at 37° C. for 30 min. Thereafter, the fluorescence intensity of DiBAC4(3) stained INS-1 cells (Ex 490 nm/Em 516 nm) was measured using a BioTek Synergy H1 plate reader programmed to acquire 49 (7×7) individual measurements per well.

INS-1 cells [2] = assay type: cell-based, rat; conditions: FIG. 5A/5B; for ACBPS-induced insulin release: ACBPS 10 Hz, 25 V; for basal insulin release: mock stimulation
Description: A rat insulinoma cell line INS-1 was obtained and were grown in 6-well polystyrene culture plates as attached monolayers in RPMI1640 culture medium supplemented with 10% fetal bovine serum, 10 mM HEPES, 1 mM sodium pyruvate, 2 mM L-glutamine, 0.05 mM 2-mercaptoethanol, 100 IU/mL penicillin and 100 μg/mL streptomycin (i.e., complete medium). Cells were maintained and experiments were conducted in a humidified atmosphere of 5% CO2 in air at 37° C. Select studies were carried out in glucose-free RPMI1640 culture medium supplemented with reagents as described above. In these experiments, the regular medium was exchanged for glucose-free medium 16 hours prior to the electrical stimulation experiment.
ACBPS was applied to cells using a C-Pace EP cell culture stimulator in combination with a C-dish electrode array for a 6-well plate. Control cells were mock stimulated using an identical 6-well C-dish electrode array that was not connected to the stimulator. Unless otherwise stated, the biphasic stimulation parameters were anodal followed by cathodal at 10 Hz (frequency), 5 milliseconds (ms) (total pulse duration), and 25 V (pulse magnitude).
Insulin release from INS-1 cells into the culture medium was determined by ELISA (Rat Insulin ELISA Kit) per the manufacturer's instructions. For these studies, cells were grown to approximately 95% confluency in 6-well plates containing 3 mL complete medium/well. 16 hours before stimulation, the medium was replaced with 3 mL fresh complete medium. Immediately prior to stimulation, the medium was aspirated, the cells were washed twice with 2 mL phosphate buffered saline (PBS), and then 3 mL fresh complete medium was added to each well. Cells were subjected to ACBPS (10 Hz, (2.5 ms)/(2.5 ms) pulse duration (i.e. anodal duration/cathodal duration), 10-25 V magnitude) or mock stimulation for the indicated times. At the end of the stimulation periods, a 0.5 mL sample of medium was removed from each well and stored frozen at −70° C. for later analysis. In some studies, cells were grown for 16 hours in glucose-free medium prior to stimulation. To examine a role for electrolysis products in promoting insulin release, an additional series of experiments were conducted that involved the application of ACBPS (10 Hz, (2.5 ms)/(2.5 ms) pulse duration, 25 V magnitude) or no stimulation (mock) for 30 min to 6-well plates containing only complete medium (3 mL per well) (i.e., no cells). At the end of the stimulation period, the “pre-stimulated” medium was transferred to cells that had been washed twice with PBS (as above). The cells were allowed to incubate with the pre-stimulated medium for 30 min, after which a 0.5 mL sample of medium was removed from each well and stored frozen at −70° C. for latter analysis. The insulin concentration of the culture medium was measured by colorimetric ELISA using 2 μL of the culture medium as described by the manufacturer. Culture medium samples and insulin standards were allowed to bind for 16 hours at 4° C.

Molecule | DiBAC4(3) fluorescence (INS-1 cells [1]) | ACBPS-induced insulin release (INS-1 cells [2]) | basal insulin release (INS-1 cells [2])
[Cl-].[K+] [KCl] | increased |  | 
CC[C@@H]1/C=C/C=C/C[C@H](C)[C@H](O)[C@](C)(O)C(=O)[C@H](C)[C@@H](O)[C@H](C)C(=O)[C@H](C)[C@@H](O)[C@H](C)/C=C/C(=O)O[C@H]2[C@@H](C)[C@@H](CC1)O[C@@]1(CC[C@@H](C)[C@@H](C[C@H](C)O)O1)[C@@H]2C [oligomycin A] |  | inhibited | inhibited
CC(C)[C@@H]1NC(=O)[C@H](C)OC(=O)[C@@H](C(C)C)NC(=O)[C@@H](C(C)C)OC(=O)[C@H](C(C)C)NC(=O)[C@H](C)OC(=O)[C@@H](C(C)C)NC(=O)[C@@H](C(C)C)OC(=O)[C@H](C(C)C)NC(=O)[C@H](C)OC(=O)[C@@H](C(C)C)NC(=O)[C@@H](C(C)C)OC1=O [valinomycin] | decrease |  | 
Antimycin A |  | inhibited | inhibited
gramicidin A | increased |  | 
COc1ccc(CCN(C)CCCC(C#N)(c2ccc(OC)c(OC)c2)C(C)C)cc1OC (centres unmarked) [verapamil] |  |  | inhibited
